Reference: PubChem BioAssay (NCI)
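1) Cells in 96-well plates. 2) Compound, 48 h, 5 concentrations. 3) Linear interpolation between surrounding doses. 4) Unreached endpoint = highest concentration. TGI marks complete inhibition of growth.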

Tests used:
Test in all cases: growth of human tumour cells (NCI), 48 h
[1] = system: U251 CNS
[2] = system: UACC-62 melanoma
[3] = system: CAKI-1 renal
[4] = system: UACC-257 melanoma
[5] = system: HCC-2998 colon
[6] = system: NCI-H460 lung
[7] = system: HOP-62 NSCLC
[8] = system: HCT-15 colon
[9] = system: SK-MEL-2 melanoma
[10] = system: TK-10 renal
[11] = system: MOLT-4 leukemia
[12] = system: SK-MEL-5 melanoma
[13] = system: RXF 393 renal
[14] = system: SK-MEL-28 melanoma
[15] = system: OVCAR-4 ovarian
[16] = system: RPMI-8226 leukemia
[17] = system: SN12C renal
[18] = system: HT29 colon
[19] = system: M14 melanoma
[20] = system: LXFL 529 NSCLC

COc1cc2c3c(c4cc(OC)c(OC)cc4c2cc1OC)C(=O)C1CCC(=O)N1C3 (configuration not stated) was tested, and the TGI [1] was > 100 µM, the TGI [2] was > 100 µM and the TGI [3] was 38.9 µM. For the same compound, the TGI [4] was > 100 µM, the TGI [5] was > 100 µM and the TGI [6] was > 100 µM. For the same compound, the TGI [7] was 59.3 µM, the TGI [8] was > 100 µM and the TGI [9] was > 100 µM. The TGI [10] was 54.5 µM, the TGI [11] was 37.5 µM and the TGI [12] was > 100 µM. The TGI [13] was 89.6 µM, the TGI [14] was > 100 µM and the TGI [15] was > 100 µM. The TGI [16] was > 100 µM.
O=C(CC(=O)c1ccccc1)CC(O)(c1ccccc1)c1ccccc1 was tested, and the TGI [17] was 19.3 µM, the TGI [1] was 14.9 µM and the TGI [18] was 23.7 µM. The TGI [19] was 14.9 µM, the TGI [2] was 14.9 µM and the TGI [3] was 13.4 µM. It also gave a TGI [4] of 29.7 µM, a TGI [5] of 23.8 µM and a TGI [6] of 16.3 µM. It also gave a TGI [7] of 12 µM, a TGI [8] of 23 µM and a TGI [9] of 22.2 µM. For the same compound, the TGI [10] was 42.1 µM, the TGI [20] was 17 µM and the TGI [11] was 42.8 µM. It also gave a TGI [12] of 13.7 µM, a TGI [14] of 31.9 µM and a TGI [15] of 17.9 µM. The TGI [16] was > 100 µM.
COC(=O)CN(C)P(=O)(N1CC1)N1CC1 was tested, and the TGI [17] was > 100 µM, the TGI [1] was > 100 µM and the TGI [18] was > 100 µM. For the same compound, the TGI [19] was > 100 µM, the TGI [2] was > 100 µM and the TGI [3] was > 100 µM. The TGI [4] was > 100 µM, the TGI [5] was > 100 µM and the TGI [8] was > 100 µM. For the same compound, the TGI [9] was > 100 µM, the TGI [10] was > 100 µM and the TGI [20] was > 100 µM. The TGI [11] was > 100 µM, the TGI [12] was > 100 µM and the TGI [13] was > 100 µM. For the same compound, the TGI [14] was > 100 µM, the TGI [15] was > 100 µM and the TGI [16] was > 100 µM.
In the case of CC(=O)OC1(C#N)CC2OC1C1C2N=NN1C(=O)OC(C)(C)C (configuration not stated), the TGI [17] is reported as > 100 µM, the TGI [18] is reported as > 100 µM and the TGI [19] is reported as 46.6 µM. The TGI [2] was 45.9 µM, the TGI [3] was > 100 µM and the TGI [4] was > 100 µM. For the same compound, the TGI [5] was > 100 µM, the TGI [6] was > 100 µM and the TGI [7] was > 100 µM. The TGI [8] was 55.9 µM, the TGI [9] was 68.9 µM and the TGI [10] was > 100 µM. For the same compound, the TGI [20] was > 100 µM, the TGI [11] was > 100 µM and the TGI [12] was > 100 µM. For the same compound, the TGI [13] was > 100 µM, the TGI [14] was 81.9 µM and the TGI [15] was > 100 µM. The TGI [16] was > 100 µM.
